Experimental data taken from patent US5013734A, “Novel esters of phenylalkanoic acid” (Ono Pharmaceutical Co., Ltd., priority 1989, dated 1991).
Counter-ions that a name gives are not always drawn.

Legend:
β-receptor (trachea) = target: T1, β-receptor (trachea) (Cavia porcellus, UniProt Q8K4Z4); assay: Cardio selectivity of β-receptor blocking effect in vitro: isolated trachea, isoproterenol concentration-response; format: cell-based, guinea pig; conditions: against isoproterenol (10^-10 M to 10^-4 M), read-out: pA2 value trachea (converted)
T1 construct: Trachea was cut into zigzag strip and connected to a force transducer; from tissue; host or cells: isolated guinea pig tracheal zigzag strip
T1 sequence (Q8K4Z4 whole entry): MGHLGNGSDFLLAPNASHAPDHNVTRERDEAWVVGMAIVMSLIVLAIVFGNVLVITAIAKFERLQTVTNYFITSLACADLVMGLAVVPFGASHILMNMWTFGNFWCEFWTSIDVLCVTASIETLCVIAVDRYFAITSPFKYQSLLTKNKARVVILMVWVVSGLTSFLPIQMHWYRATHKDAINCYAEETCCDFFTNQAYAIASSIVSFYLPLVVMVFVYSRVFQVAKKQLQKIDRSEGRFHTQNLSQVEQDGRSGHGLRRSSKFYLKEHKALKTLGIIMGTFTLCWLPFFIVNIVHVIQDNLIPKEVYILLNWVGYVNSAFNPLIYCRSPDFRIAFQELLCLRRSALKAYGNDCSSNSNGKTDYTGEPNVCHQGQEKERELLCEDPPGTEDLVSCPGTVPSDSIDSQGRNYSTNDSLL
Source text: Concentration-response curves to isoproterenol were then obtained.

[1] = acute toxicity (LD50), intravenous, mice; conditions: mouse, in vivo; intravenous administration in mice
Source text: On the other hand, it was confirmed that the toxicity of the compounds of the present invention was very low. […] Therefore, the compounds of the present invention may be considered to be sufficiently safe and suitable for pharmaceutical use.

β1 -receptor = assay: β-blocking activity in vivo: inhibition of isoproterenol-induced tachycardia in anesthetized dogs; conditions: for Inhibitory effect after administration of compounds of the present invention (inhibition of isoproterenol-induced tachycardia), 10 min: 10 min (during infusion); for Inhibitory effect after administration of compounds of the present invention (inhibition of isoproterenol-induced tachycardia), 10 min / Inhibitory effect after administration of compounds of the present invention (inhibition of isoproterenol-induced tachycardia), 20 min / Inhibitory effect after administration of compounds of the present invention (inhibition of isoproterenol-induced tachycardia), 30 min / Inhibitory effect after administration of compounds of the present invention (inhibition of isoproterenol-induced tachycardia), 35 min / Inhibitory effect after administration of compounds of the present invention (inhibition of isoproterenol-induced tachycardia), 40 min / Inhibitory effect after administration of compounds of the present invention (inhibition of isoproterenol-induced tachycardia), 50 min / Inhibitory effect after administration of compounds of the present invention (inhibition of isoproterenol-induced tachycardia), 60 min: 10 μg/kg/min iv infusion for 30 minutes; for Inhibitory effect after administration of compounds of the present invention (inhibition of isoproterenol-induced tachycardia), 20 min: 20 min (during infusion); for Inhibitory effect after administration of compounds of the present invention (inhibition of isoproterenol-induced tachycardia), 30 min: 30 min (end of infusion); for Inhibitory effect after administration of compounds of the present invention (inhibition of isoproterenol-induced tachycardia), 35 min: 35 min (after infusion); for Inhibitory effect after administration of compounds of the present invention (inhibition of isoproterenol-induced tachycardia), 40 min: 40 min (after infusion); for Inhibitory effect after administration of compounds of the present invention (inhibition of isoproterenol-induced tachycardia), 50 min: 50 min (after infusion); for Inhibitory effect after administration of compounds of the present invention (inhibition of isoproterenol-induced tachycardia), 60 min: 60 min (after infusion); for Duration of action: time required to decrease the inhibition percent 30 minutes after administration to half, 10 μg/kg/min iv infusion
Protocol: β-blocking activity of the compounds of the present invention in vivo
Dogs were anesthetized with sodium barbital (300 mg/kg, ip). A femoral artery and both femoral veins were cannulated. Blood pressure was measured with a pressure transducer. Heart rate was measured from the blood pressure signal using a cardiotachometer. The β-blocking activity was assessed by the inhibition of isoproterenol-induced tachycardia. Isoproterenol was administered intravenously (0.1~0.3 μg/kg) at 10 minutes intervals. When a regular tachycardia induced by isoproterenol was given, the compound of the present invention was administered (10 μg/kg/min, iv infusion) for 30 minutes. Isoproterenol was given repeatedly during and following infusion of a test compound. The inhibitory effects of the compounds of the present invention on tachycardia were calculated.
Inhibition (%)=((ΔRO-ΔRa)/ΔRO)×100
ΔRO: the increment of heart rate by isoproterenol before infusion of the compound of the present invention
ΔRa: the increment of heart rate by isoproterenol during and after infusion of the compound of the present invention

Compound	Kb (β-receptor (trachea))	LD50 [1]	Inhibitory effect after administration of compounds of the present invention (inhibition of isoproterenol-induced tachycardia), 10 min (β1 -receptor)	Inhibitory effect after administration of compounds of the present invention (inhibition of isoproterenol-induced tachycardia), 20 min (β1 -receptor)	Inhibitory effect after administration of compounds of the present invention (inhibition of isoproterenol-induced tachycardia), 30 min (β1 -receptor)	Inhibitory effect after administration of compounds of the present invention (inhibition of isoproterenol-induced tachycardia), 35 min (β1 -receptor)	Inhibitory effect after administration of compounds of the present invention (inhibition of isoproterenol-induced tachycardia), 40 min (β1 -receptor)	Inhibitory effect after administration of compounds of the present invention (inhibition of isoproterenol-induced tachycardia), 50 min (β1 -receptor)	Inhibitory effect after administration of compounds of the present invention (inhibition of isoproterenol-induced tachycardia), 60 min (β1 -receptor)	Duration of action (β1 -receptor)
CC1(C)OC[C@@H](COC(=O)CCc2ccc(OC[C@@H](O)CNCCNC(=O)N3CCOCC3)cc2)O1 [2 (b), (2,2-dimethyl-1,3-dioxolan-4S-yl)methyl 3-[4-[2S-hydroxy-3-(2-morpholinocarbonylaminoethyl)aminopropoxy]phenyl]propionate 1/2 oxalate]	66.1 µM	290 mg/kg								
O=C(CCc1ccc(OCC(O)CNCCNC(=O)N2CCOCC2)cc1)OCC1COC2(CCCC2)O1 (stereo not shown) [3 (c), (1,4-dioxaspiro[4,4]-nonan-2-yl)methyl 3-[4-[2-hydroxy-3-(2-morpholinocarbonylaminoethyl)aminopropoxy]phenyl]-ropionate 1/2 oxalate]			38.3%	46.9%	40.4%	37.0%	20.1%	-2.6%	-1.3%	10 min
CC1(C)OCC(COC(=O)CCc2ccc(OC[C@@H](O)CNCCNC(=O)N3CCOCC3)c(F)c2)O1 (stereo partly drawn) [3 (e), (2,2-dimethyl-1,3-dioxolan-4-yl)methyl 3-[3-fluoro-4-[2S-hydroxy-3-(2-morpholinocarbonylaminoethyl)aminopropoxy]phenyl]propionate 1/2 oxalate]			49.6%	58.5%	63.8%	45.4%	32.7%	10.8%	-3.3%	10 min
CC1(C)OCC(COC(=O)CCc2ccc(OC[C@@H](O)CNCCNC(=O)N3CCOCC3)c(C#N)c2)O1 (stereo partly drawn) [3 (j), (2,2-dimethyl-1,3-dioxolan-4-yl)methyl 3-[3-cyano-4-[2S-hydroxy-3-(2-morpholinocarbonylaminoethyl)aminopropoxy]phenyl]propionate 1/2 oxalate]			75.7%	69.0%	68.7%	48.9%	38.3%	19.3%	13.6%	12 min
CN1CCN(C(=O)NCCNC[C@H](O)COc2ccc(CCC(=O)OCC3COC(C)(C)O3)cc2)CC1 (stereo partly drawn) [3 (l), (2,2-dimethyl-1,3-dioxolan-4-yl)methyl 3-[4-[2S-hydroxy-3-[2-(4-methylpiperazin-1-yl)carbonylaminoethyl]aminopropoxy]phenyl]propionate 1/2 oxalate]			60.2%	58.6%	59.8%	55.6%	41.8%	19.6%	16.3%	15 min
